In publication PMC9127186, “Molecular Basis Underlying Hepatobiliary and Renal Excretion of Phenolic Acids of Salvia miltiorrhiza Roots (Danshen)” (Frontiers in Pharmacology, 2022):
Blank lines part the entries; values can stand above or below the molecule they belong to.

Experiments:
human MRP3 = human MRP3 (Homo sapiens, UniProt O15438); experiment: Vesicular transport assay, inside-out membrane vesicles expressing human MRP3; settings: positive substrate 20 μM, 10 min; human MRP3
Description: (§1) Inside-out membrane vesicles (5 mg protein/mL), prepared from insect cells expressing human multidrug resistance-associated protein (MRP) 2, MRP3, MRP4, breast cancer resistance protein (BCRP), bile salt export pump (BSEP), and multidrug resistance protein (MDR) one and rat Mrp2, Mrp4, Bcrp, and Bsep, and vesicles (5 mg protein/mL; prepared from the insect cells expressing no ABC transporter; serving as negative control) were obtained from Genomembrane (Kanazawa, Japan).
(§2) The test Danshen compounds at 100 µM final concentration were separately incubated with the membrane vesicles for 10 min. Buffer C (50 mM MOPS-tris, 70 mM KCl, 7.5 mM MgCl2, pH 7.0) was used for preincubation and incubation, while buffer D (40 mM MOPS-tris, 70 mM KCl, pH 7.0) was used for vesicle washing. The transport rate (pmol/mg protein/min) of the test Danshen compound was calculated using Equation (2): Transport=(CV×VV)/T/WV (2) where C V, V V, T, and W V represent concentration of the compound in vesicular lysates supernatant (μM), volume of the lysates (μL), incubation time (10 min), and amount of vesicle protein amount per well (0.05 mg), respectively. Differential transport of the test Danshen compound between ATP-containing vesicles and AMP-containing vesicles was defined as net transport ratio (TransportATP/TransportAMP ratio). […] All the incubation samples were analyzed by liquid chromatography/mass spectrometry.

human MRP2 = human MRP2 (Homo sapiens, UniProt Q92887); experiment: Vesicular transport assay, inside-out membrane vesicles expressing human MRP2; settings: positive substrate 20 μM, 10 min; human MRP2
Description: as §1, §2

rat Mrp2 = rat Mrp2 (Rattus norvegicus, UniProt Q63120); experiment: Vesicular transport assay, inside-out membrane vesicles expressing rat Mrp2; settings: positive substrate 20 μM, 10 min; rat Mrp2
Sequence of rat Mrp2 (Q63120 whole entry): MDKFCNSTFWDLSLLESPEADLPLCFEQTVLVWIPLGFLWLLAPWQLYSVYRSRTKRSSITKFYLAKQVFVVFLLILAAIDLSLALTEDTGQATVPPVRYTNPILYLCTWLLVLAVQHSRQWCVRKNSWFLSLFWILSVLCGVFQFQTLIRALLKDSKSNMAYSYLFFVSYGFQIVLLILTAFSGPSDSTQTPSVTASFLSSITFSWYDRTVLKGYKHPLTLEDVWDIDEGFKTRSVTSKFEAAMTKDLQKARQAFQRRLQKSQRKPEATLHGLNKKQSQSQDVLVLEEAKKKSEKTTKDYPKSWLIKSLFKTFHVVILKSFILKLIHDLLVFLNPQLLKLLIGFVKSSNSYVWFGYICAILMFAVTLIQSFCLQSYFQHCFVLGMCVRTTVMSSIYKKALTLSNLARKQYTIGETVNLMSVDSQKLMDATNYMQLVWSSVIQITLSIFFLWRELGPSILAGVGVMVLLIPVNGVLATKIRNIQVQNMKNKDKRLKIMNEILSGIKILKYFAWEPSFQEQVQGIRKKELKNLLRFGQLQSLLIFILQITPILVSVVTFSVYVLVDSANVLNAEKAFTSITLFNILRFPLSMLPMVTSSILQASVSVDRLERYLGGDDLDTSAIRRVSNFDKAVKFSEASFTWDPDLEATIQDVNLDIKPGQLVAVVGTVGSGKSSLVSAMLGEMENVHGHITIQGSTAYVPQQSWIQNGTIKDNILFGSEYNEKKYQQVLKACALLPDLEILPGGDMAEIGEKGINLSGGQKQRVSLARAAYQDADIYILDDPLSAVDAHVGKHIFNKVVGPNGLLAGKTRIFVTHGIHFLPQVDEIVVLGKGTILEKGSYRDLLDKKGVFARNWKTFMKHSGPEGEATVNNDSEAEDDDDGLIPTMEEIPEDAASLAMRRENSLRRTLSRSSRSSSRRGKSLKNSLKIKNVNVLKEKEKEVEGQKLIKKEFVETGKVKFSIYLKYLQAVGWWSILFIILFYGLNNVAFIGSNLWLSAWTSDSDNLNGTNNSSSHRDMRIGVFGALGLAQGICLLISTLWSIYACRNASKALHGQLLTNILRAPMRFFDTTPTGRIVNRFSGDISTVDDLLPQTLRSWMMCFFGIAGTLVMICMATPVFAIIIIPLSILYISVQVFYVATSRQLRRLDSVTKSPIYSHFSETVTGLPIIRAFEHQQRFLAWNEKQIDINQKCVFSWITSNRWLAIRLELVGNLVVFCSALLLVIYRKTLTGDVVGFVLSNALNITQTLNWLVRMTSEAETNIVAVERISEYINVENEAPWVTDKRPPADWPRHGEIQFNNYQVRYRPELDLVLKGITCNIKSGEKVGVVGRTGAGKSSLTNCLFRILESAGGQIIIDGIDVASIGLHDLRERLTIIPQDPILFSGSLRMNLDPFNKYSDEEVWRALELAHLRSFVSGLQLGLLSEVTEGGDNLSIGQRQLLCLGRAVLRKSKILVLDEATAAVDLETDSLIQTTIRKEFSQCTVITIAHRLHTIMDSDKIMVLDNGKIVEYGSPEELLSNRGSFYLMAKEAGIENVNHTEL
Description: as §1, §2

rat Oatp1b2 = biological target: T1, rat Oatp1b2 (Rattus norvegicus, UniProt Q9QZX8); experiment: Cellular transport assay, HEK-293 cells expressing rat Oatp1b2; settings: positive substrate 20 μM, 10 min; rat Oatp1b2
T1 sequence (Q9QZX8 1-687): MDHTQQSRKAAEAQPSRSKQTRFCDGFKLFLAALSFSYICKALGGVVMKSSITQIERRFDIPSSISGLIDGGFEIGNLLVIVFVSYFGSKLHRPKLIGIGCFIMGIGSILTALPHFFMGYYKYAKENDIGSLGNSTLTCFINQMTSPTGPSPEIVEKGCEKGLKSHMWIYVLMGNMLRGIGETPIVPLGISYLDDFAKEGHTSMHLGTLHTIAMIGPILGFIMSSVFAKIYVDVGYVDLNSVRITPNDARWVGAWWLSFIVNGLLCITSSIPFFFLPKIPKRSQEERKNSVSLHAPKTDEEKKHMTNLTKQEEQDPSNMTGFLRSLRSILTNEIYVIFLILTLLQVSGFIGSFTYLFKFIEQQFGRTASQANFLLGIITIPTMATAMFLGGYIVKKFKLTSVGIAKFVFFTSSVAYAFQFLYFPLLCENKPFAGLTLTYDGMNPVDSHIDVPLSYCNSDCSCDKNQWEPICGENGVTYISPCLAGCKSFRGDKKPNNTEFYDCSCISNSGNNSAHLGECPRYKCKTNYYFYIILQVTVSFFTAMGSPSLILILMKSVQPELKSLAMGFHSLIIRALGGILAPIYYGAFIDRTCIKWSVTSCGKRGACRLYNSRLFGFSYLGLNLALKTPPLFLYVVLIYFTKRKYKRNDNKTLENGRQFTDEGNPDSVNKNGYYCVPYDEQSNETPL
Description: (§3) Briefly, HEK-293 cells were grown, at 37°C and 5% CO2, in Dulbecco’s modified Eagle’s medium, which was fortified with 10% fetal bovine serum, 1% minimal essential medium nonessential amino acids, and 1% antibiotic-antimycotic solution. A day before transfection, cells were seeded onto 24-well poly-D-lysine-coated plates at a density of 2 × 10^5 cells per well. After incubation at 37°C and 5% CO2 for 24 h, the expression plasmid and the empty vector were introduced separately into the HEK293 cells with Lipofectamine 2000 transfection reagent (Invitrogen, Carlsbad, CA, United States), according to the manufacturer’s protocol to yield transporter-expressing cells and mock cells, respectively.
(§4) Transport studies were performed 48 h after the transfection. […] Differential uptake between the transfected cells and mock cells was defined as net transport ratio (TransportTC/TransportMC ratio), where TransportTC and TransportMC are the transport rates of a test Danshen compound into transfected and mock cells, respectively. […] The determination was performed under linear uptake conditions by incubation for 5 min. Table 1 summarizes the final concentrations of the test Danshen compounds for different transporters. All the incubation samples were analyzed by liquid chromatography/mass spectrometry.
(§5) GraFit software (version 5.0; Erithacus Software Ltd, Surrey, United Kingdom) was used to determine the K m and V max values by nonlinear regression analysis of initial transport rates as a function of substrate concentration.

OATP1B3 = biological target: T2, OATP1B3 (Homo sapiens, UniProt Q9NPD5); experiment: Cellular transport assay, HEK-293 cells expressing human OATP1B3; settings: positive substrate 20 μM, 10 min; human OATP1B3
T2 sequence (Q9NPD5 1-702): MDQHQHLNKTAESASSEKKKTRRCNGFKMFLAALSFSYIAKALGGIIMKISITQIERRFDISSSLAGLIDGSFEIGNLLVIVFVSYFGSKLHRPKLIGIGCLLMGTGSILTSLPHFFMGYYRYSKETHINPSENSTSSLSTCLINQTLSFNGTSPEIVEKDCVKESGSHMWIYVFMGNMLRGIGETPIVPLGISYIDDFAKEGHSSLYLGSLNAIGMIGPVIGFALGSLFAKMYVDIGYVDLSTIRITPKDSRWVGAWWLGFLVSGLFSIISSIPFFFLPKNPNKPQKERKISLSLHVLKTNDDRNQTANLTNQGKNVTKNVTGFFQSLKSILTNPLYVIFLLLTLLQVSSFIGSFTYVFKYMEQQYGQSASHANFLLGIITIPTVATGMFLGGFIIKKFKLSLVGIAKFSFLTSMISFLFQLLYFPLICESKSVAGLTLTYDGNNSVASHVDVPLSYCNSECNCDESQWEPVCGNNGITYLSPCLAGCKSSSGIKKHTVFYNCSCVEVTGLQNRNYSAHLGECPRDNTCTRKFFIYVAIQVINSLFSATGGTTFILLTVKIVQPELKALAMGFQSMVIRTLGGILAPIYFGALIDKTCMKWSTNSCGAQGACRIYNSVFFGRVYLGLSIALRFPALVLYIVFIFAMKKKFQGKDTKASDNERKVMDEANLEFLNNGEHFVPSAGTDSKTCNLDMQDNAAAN
Description: as §3, §4, §5

human OATP1B1 = biological target: T3, human OATP1B1 (Homo sapiens, UniProt Q9Y6L6); experiment: Cellular transport assay, HEK-293 cells expressing human OATP1B1; settings: positive substrate 20 μM, 10 min; human OATP1B1
T3 sequence (Q9Y6L6 1-691): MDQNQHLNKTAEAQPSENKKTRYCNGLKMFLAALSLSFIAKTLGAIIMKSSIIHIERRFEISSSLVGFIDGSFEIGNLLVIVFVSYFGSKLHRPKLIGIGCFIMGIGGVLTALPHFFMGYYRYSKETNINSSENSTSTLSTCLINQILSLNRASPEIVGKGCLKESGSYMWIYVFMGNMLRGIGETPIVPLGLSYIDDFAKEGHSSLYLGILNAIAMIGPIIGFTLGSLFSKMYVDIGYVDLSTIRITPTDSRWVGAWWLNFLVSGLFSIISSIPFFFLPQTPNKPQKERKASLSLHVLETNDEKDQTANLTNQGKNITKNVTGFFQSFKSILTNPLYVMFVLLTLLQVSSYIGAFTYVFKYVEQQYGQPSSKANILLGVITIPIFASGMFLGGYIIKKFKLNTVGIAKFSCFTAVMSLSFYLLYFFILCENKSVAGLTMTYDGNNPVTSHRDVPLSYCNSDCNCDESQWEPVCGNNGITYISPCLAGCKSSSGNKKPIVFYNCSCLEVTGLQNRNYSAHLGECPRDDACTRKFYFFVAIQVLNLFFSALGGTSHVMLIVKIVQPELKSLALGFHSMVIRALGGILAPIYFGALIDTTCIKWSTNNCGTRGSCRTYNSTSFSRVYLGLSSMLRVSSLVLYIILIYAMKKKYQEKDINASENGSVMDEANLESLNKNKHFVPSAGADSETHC
Description: as §3, §4, §5

human MDR1 = human MDR1 (Homo sapiens, UniProt P08183); experiment: Vesicular transport assay, inside-out membrane vesicles expressing human MDR1; settings: positive substrate 20 μM, 10 min; human MDR1
Sequence of human MDR1 (P08183 whole entry): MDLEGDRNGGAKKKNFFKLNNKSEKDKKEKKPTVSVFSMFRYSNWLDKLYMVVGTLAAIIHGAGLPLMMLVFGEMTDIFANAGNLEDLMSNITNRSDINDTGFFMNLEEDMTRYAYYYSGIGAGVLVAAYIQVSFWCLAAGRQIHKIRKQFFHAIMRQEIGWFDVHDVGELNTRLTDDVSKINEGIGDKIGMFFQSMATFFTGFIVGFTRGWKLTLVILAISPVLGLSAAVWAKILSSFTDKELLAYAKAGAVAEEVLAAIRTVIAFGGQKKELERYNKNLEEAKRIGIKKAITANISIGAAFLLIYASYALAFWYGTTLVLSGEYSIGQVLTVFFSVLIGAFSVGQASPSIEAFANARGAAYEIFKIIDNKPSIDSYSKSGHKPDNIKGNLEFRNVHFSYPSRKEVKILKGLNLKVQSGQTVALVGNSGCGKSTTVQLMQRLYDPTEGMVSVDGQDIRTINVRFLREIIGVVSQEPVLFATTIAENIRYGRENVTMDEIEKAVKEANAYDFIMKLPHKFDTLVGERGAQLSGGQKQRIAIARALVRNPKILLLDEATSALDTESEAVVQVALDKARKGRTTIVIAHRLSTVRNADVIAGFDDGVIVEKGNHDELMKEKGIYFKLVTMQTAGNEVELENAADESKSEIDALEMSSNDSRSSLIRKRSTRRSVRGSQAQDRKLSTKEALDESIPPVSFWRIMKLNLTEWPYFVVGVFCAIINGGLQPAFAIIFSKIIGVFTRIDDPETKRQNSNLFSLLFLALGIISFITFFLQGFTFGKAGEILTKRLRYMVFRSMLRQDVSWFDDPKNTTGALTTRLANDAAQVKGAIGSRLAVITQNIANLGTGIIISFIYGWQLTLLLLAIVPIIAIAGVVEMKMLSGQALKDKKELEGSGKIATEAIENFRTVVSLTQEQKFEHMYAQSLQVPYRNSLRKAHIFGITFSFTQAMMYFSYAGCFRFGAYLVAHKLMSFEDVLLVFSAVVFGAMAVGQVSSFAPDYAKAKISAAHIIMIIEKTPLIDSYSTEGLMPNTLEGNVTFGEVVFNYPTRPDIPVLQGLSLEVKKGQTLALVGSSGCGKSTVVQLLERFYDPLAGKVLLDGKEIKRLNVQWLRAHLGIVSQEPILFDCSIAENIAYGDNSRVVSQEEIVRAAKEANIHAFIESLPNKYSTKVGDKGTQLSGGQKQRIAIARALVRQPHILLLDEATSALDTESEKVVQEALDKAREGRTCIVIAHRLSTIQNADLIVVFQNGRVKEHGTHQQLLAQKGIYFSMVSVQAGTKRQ
Description: as §1, §2

human OAT2 = biological target: T4, human OAT2 (Homo sapiens, UniProt Q9Y694); experiment: Cellular transport assay, HEK-293 cells expressing human OAT2; settings: positive substrate 20 μM, 10 min; human OAT2
T4 sequence (Q9Y694 1-546 isoform Q9Y694-2): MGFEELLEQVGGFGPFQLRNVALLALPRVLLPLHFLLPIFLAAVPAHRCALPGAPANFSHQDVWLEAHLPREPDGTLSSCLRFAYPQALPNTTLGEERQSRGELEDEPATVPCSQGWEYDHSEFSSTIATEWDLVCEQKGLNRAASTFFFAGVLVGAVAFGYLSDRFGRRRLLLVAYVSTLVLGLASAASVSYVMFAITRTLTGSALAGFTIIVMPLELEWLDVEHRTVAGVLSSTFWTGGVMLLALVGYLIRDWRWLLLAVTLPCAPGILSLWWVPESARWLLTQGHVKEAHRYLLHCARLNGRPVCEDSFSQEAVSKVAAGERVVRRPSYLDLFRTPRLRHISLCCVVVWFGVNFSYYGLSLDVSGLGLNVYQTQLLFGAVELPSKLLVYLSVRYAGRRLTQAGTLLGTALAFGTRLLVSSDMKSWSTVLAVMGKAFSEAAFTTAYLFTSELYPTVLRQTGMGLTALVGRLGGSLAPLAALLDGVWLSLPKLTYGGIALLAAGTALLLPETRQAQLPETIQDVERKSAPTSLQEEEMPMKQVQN
Description: as §3, §4, §5

rat Oat2 = biological target: T5, rat Oat2 (Rattus norvegicus, UniProt Q5RLM2); experiment: Cellular transport assay, HEK-293 cells expressing rat Oat2; settings: positive substrate 20 μM, 10 min; rat Oat2
T5 sequence (Q5RLM2 1-535): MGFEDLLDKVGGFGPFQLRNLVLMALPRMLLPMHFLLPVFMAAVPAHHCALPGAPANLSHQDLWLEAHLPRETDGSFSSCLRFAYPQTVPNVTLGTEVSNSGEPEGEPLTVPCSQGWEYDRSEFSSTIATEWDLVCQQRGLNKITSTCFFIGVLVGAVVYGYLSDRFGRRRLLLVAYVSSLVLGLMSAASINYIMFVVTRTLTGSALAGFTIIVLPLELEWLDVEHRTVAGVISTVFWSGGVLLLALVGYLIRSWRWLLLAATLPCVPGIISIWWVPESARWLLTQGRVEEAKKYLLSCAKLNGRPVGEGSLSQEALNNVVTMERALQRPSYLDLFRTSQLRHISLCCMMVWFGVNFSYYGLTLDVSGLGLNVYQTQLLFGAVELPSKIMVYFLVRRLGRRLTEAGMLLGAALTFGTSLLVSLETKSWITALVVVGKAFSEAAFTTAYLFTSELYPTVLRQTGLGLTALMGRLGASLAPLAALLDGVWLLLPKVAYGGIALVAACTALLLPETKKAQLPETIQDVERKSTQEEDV
Description: as §3, §4, §5

[1] = substrate: O=C(/C=C/c1ccc(O)c(O)c1)O[C@H](Cc1ccc(O)c(O)c1)C(=O)O; experiment: cells, lysate or membranes named; settings: other: human renal apical uptake OAT4; 5 min incubation, concentrations in Table 1; 37.0 °C

Sequence of human MRP3 (O15438 whole entry): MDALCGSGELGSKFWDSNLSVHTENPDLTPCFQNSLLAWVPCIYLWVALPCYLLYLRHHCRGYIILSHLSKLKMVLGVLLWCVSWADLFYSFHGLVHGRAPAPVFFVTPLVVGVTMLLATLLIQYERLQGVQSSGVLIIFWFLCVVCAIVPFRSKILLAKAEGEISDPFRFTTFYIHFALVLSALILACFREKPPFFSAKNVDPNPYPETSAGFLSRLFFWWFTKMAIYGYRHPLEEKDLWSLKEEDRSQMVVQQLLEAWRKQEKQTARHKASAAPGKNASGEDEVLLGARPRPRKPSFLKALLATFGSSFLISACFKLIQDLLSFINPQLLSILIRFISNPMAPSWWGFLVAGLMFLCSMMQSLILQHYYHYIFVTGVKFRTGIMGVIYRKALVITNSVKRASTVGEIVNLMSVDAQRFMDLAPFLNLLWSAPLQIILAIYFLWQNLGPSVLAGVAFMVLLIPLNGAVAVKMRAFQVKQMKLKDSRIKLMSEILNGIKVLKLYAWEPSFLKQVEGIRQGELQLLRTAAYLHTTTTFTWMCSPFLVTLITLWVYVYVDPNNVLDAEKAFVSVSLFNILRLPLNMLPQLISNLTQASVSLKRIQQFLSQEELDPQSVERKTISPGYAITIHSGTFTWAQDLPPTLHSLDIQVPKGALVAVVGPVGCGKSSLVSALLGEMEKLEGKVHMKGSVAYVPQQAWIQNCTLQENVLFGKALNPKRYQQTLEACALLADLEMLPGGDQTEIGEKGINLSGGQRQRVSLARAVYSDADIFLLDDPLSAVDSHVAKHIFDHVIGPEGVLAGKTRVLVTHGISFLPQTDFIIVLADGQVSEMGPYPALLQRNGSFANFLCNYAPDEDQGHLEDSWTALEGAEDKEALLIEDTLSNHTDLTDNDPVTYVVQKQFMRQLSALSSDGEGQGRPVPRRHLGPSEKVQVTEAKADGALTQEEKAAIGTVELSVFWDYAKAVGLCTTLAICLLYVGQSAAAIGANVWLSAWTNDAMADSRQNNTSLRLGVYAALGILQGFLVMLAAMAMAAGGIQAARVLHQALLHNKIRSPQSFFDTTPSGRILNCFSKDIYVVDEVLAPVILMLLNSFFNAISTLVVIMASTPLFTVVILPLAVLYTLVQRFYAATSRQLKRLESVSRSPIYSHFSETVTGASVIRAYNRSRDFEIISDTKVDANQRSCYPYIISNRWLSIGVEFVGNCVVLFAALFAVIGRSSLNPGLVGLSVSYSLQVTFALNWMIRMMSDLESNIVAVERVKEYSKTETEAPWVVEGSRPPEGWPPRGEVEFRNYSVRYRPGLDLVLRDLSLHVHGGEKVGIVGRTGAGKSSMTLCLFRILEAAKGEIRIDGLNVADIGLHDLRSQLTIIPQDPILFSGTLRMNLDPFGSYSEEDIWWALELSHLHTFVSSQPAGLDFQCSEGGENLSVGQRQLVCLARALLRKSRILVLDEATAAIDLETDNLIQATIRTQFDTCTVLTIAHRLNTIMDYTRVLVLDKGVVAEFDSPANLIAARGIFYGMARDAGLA

- TransportATP/TransportAMP ratio, positive substrate (human MRP3): 6.79 ± 1.49 (E217βG)
- TransportATP/TransportAMP ratio, positive substrate (human MRP2): 7.23 ± 1.04 (E217βG)
- TransportATP/TransportAMP ratio, positive substrate (rat Mrp2): 3.54 ± 0.32 (E217βG)
Molecule: C[C@]12CC[C@@H]3c4ccc(O)cc4CC[C@H]3[C@@H]1CC[C@@H]2O[C@@H]1O[C@H](C(=O)O)[C@@H](O)[C@H](O)[C@H]1O [E217βG, estradiol-17β-D-glucuronide, reference compound]

- TransportTC/TransportMC ratio, positive substrate (human OAT2): 70.2 ± 6.6 (PGF2α)
- TransportTC/TransportMC ratio, positive substrate (rat Oat2): 24.3 ± 3.3 (PGF2α)
Molecule: CCCCC[C@H](O)/C=C/[C@@H]1[C@@H](C/C=C\CCCC(=O)O)[C@@H](O)C[C@H]1O [PGF2α, prostaglandin F2α, reference compound]

The remaining lines, values behind:

Molecule: CC1(C)[C@@H](O[C@H]2O[C@H](C(=O)O)[C@@H](O)[C@H](O)[C@H]2O[C@@H]2O[C@H](C(=O)O)[C@@H](O)[C@H](O)[C@H]2O)CC[C@]2(C)[C@H]3C(=O)C=C4[C@@H]5C[C@@](C)(C(=O)O)CC[C@]5(C)CC[C@@]4(C)[C@]3(C)CC[C@@H]12 [GL, glycyrrhizin, reference compound]
- TransportTC/TransportMC ratio, positive substrate (rat Oatp1b2): 121 ± 2 (GL)
- TransportTC/TransportMC ratio, positive substrate (OATP1B3): 33.1 ± 0.5 (GL)
- TransportTC/TransportMC ratio, positive substrate (human OATP1B1): 79.5 ± 1.3 (GL)
- TransportATP/TransportAMP ratio, positive substrate (human MDR1): 5.13 ± 0.87 (GL)

B1: human OAT4 (Homo sapiens) (protein)
chain: MAFSKLLEQAGGVGLFQTLQVLTFILPCLMIPSQMLLENFSAAIPGHRCWTHMLDNGSAVSTNMTPKALLTISIPPGPNQGPHQCRRFRQPQWQLLDPNATATSWSEADTEPCVDGWVYDRSVFTSTIVAKWDLVCSSQGLKPLSQSIFMSGILVGSFIWGLLSYRFGRKPMLSWCCLQLAVAGTSTIFAPTFVIYCGLRFVAAFGMAGIFLSSLTLMVEWTTTSRRAVTMTVVGCAFSAGQAALGGLAFALRDWRTLQLAASVPFFAISLISWWLPESARWLIIKGKPDQALQELRKVARINGHKEAKNLTIEVLMSSVKEEVASAKEPRSVLDLFCVPVLRWRSCAMLVVNFSLLISYYGLVFDLQSLGRDIFLLQALFGAVDFLGRATTALLLSFLGRRTIQAGSQAMAGLAILANMLVPQDLQTLRVVFAVLGKGCFGISLTCLTIYKAELFPTPVRMTADGILHTVGRLGAMMGPLILMSRQALPLLPPLLYGVISIASSLVVLFFLPETQGLPLPDTIQDLESQKSTAAQGNRQEAVTVESTSL
- Vmax [1]: 4.75e-05 µmol/min/mg
- Vmax/Km [1]: 0.15 µL/min/mg
